Source: PubChem BioAssay AID330 (DTP/NCI, 2004)
“And” between values parts separate entries of the source, which are not always exact repeats. Identical values can stand only once. Inconclusive results and toxic doses are left out.

Tested on: P388 leukemia ip, CD2F1 mice, survival T/C
Test: NCI In Vivo Anticancer Drug Screen. Data for tumor model P388 Leukemia (intraperitoneal) in CD2F1 (CDF1) mice
Conditions: endpoint: median survival time, higher = longer survival
In short: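 Mice carrying the transplanted tumor received test compound or vehicle. Survival was recorded in each group, and the value is the treated-group measurement divided by that of the vehicle-treated control group.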

[1] = dose: 50.0 mg/kg/injection, schedule: Q01DX005 (ip), vehicle: Klucel (hydroxypropylcellulose) (HPC)
[2] = dose: 100.0 mg/kg/injection, schedule: Q01DX005 (ip), vehicle: Klucel (hydroxypropylcellulose) (HPC)
[3] = dose: 200.0 mg/kg/injection, schedule: Q01DX005 (ip), vehicle: Klucel (hydroxypropylcellulose) (HPC)
[4] = dose: 100.0 mg/kg/injection, schedule: Q04DX002 (ip), vehicle: saline with Tween-80
[5] = dose: 200.0 mg/kg/injection, schedule: Q04DX002 (ip), vehicle: saline with Tween-80
[6] = dose: 400.0 mg/kg/injection, schedule: Q04DX002 (ip), vehicle: saline with Tween-80
[7] = dose: 50.0 mg/kg/injection, schedule: Q01DX009 (ip), vehicle: saline with Tween-80
[8] = dose: 100.0 mg/kg/injection, schedule: Q01DX009 (ip), vehicle: saline with Tween-80
[9] = dose: 200.0 mg/kg/injection, schedule: Q01DX009 (ip), vehicle: saline with Tween-80
[10] = dose: 50.0 mg/kg/injection, schedule: Q01DX005 (ip), vehicle: saline with Tween-80
[11] = dose: 100.0 mg/kg/injection, schedule: Q01DX005 (ip), vehicle: saline with Tween-80
[12] = dose: 200.0 mg/kg/injection, schedule: Q01DX005 (ip), vehicle: saline with Tween-80
[13] = dose: 50.0 mg/kg/injection, schedule: Q01DX009 (ip), vehicle: Klucel (hydroxypropylcellulose) (HPC)
[14] = dose: 100.0 mg/kg/injection, schedule: Q01DX009 (ip), vehicle: Klucel (hydroxypropylcellulose) (HPC)
[15] = dose: 60.0 mg/kg/injection, schedule: Q01DX005 (ip), vehicle: Klucel (hydroxypropylcellulose) (HPC)
[16] = dose: 120.0 mg/kg/injection, schedule: Q01DX005 (ip), vehicle: Klucel (hydroxypropylcellulose) (HPC)
[17] = dose: 240.0 mg/kg/injection, schedule: Q01DX005 (ip), vehicle: Klucel (hydroxypropylcellulose) (HPC)
[18] = dose: 100.0 mg/kg/injection, schedule: Q01DX001 (ip), vehicle: saline with Tween-80
[19] = dose: 200.0 mg/kg/injection, schedule: Q01DX001 (ip), vehicle: saline with Tween-80
[20] = dose: 400.0 mg/kg/injection, schedule: Q01DX001 (ip), vehicle: saline with Tween-80

In the case of `C=C1CCN(c2ccc(OCC)cc2)C1=O`, the T/C (dose: 4.0 mg/kg/injection, schedule: Q01DX009 (ip), vehicle: saline + alcohol) is reported as 102 % of control and 113 % of control and 94 % of control, the T/C (dose: 8.0 mg/kg/injection, schedule: Q01DX009 (ip), vehicle: saline + alcohol) is reported as 101 % of control and 108 % of control and 91 % of control and the T/C (dose: 16.0 mg/kg/injection, schedule: Q01DX009 (ip), vehicle: saline + alcohol) is reported as 100 % of control and 91 % of control. For the same compound, the T/C (dose: 32.0 mg/kg/injection, schedule: Q01DX009 (ip), vehicle: saline + alcohol) was 106 % of control and 111 % of control and 94 % of control and the T/C (dose: 64.0 mg/kg/injection, schedule: Q01DX009 (ip), vehicle: saline + alcohol) was 100 % of control and 108 % of control and 95 % of control.
For `CC(C)CC(NC=O)C(=O)O` (stereo not drawn), the T/C [1] was 104 % of control and 109 % of control, the T/C [2] was 95 % of control and 100 % of control and the T/C [3] was 90 % of control.
For `Cc1ccc2oc3c(ccc(=O)n3C)c(=O)c2c1`, the T/C [4] was 101 % of control, the T/C [5] was 100 % of control and the T/C [6] was 98 % of control.
`COc1ccc(/C=C/c2c(C(=O)O)oc3ccccc23)cc1` was tested, and the T/C [7] was 103 % of control, the T/C [8] was 95 % of control and the T/C [9] was 112 % of control.
In the case of `FC(F)(F)COP(c1ccccc1)c1ccccc1`, the T/C [10] is reported as 113 % of control, the T/C [11] is reported as 111 % of control and the T/C [12] is reported as 114 % of control.
For `Cc1cc(C)cc(N=Cc2ccc(C=Nc3cc(C)cc(C)c3)cc2)c1`, the T/C [13] was 92 % of control, the T/C [14] was 95 % of control and the T/C (dose: 200.0 mg/kg/injection, schedule: Q01DX009 (ip), vehicle: Klucel (hydroxypropylcellulose) (HPC)) was 100 % of control.
`COc1ccc(-c2cnnc3c(-c4cccc(C(F)(F)F)c4)cnn23)cc1` was tested, and the T/C [1] was 98 % of control, the T/C [2] was 93 % of control and the T/C [3] was 89 % of control.
`NC(=O)CC1(C(=O)O)c2ccccc2-c2ccccc21` was tested, and the T/C (dose: 100.0 mg/kg/injection, schedule: Q04DX003 (ip), vehicle: saline with Tween-80) was 97 % of control, the T/C (dose: 200.0 mg/kg/injection, schedule: Q04DX003 (ip), vehicle: saline with Tween-80) was 97 % of control and the T/C (dose: 400.0 mg/kg/injection, schedule: Q04DX003 (ip), vehicle: saline with Tween-80) was 108 % of control.
In the case of `Cn1c(=O)ccc2c(=O)c3ccccc3oc21`, the T/C [4] is reported as 100 % of control, the T/C [5] is reported as 110 % of control and the T/C [6] is reported as 107 % of control.
For `O=c1c2ccc(S(=O)(=O)c3ccc4c(=O)n5c6ccccc6nc5c5cccc3c45)c3cccc(c32)c2nc3ccccc3n12`, the T/C [15] was 86 % of control, the T/C [16] was 88 % of control and the T/C [17] was 99 % of control.
With `CN=S(=O)(OCCCCCOS(=O)(=NC)c1ccccc1)c1ccccc1` (stereo not drawn) the T/C [7] was 124 % of control and the T/C [9] was 158 % of control and 170 % of control.
With `C=CC1CCCCC1=O` (stereo not drawn) the T/C [10] was 110 % of control, the T/C [11] was 111 % of control and the T/C [12] was 111 % of control.
`OCCN(Cc1ccccn1)Cc1ccccn1` was tested, and the T/C (dose: 7.5 mg/kg/injection, schedule: Q01DX005 (ip), vehicle: saline) was 99 % of control and the T/C (dose: 15.0 mg/kg/injection, schedule: Q01DX005 (ip), vehicle: saline) was 106 % of control.
For `Cc1ncc(C(N)=O)c(N)n1`, the T/C [7] was 103 % of control, the T/C [8] was 104 % of control and the T/C [9] was 104 % of control.
For `Cc1nc(Nc2ccc(F)cc2)c2c(C)c(CC(C)C)[nH]c2n1`, the T/C [1] was 87 % of control, the T/C [2] was 91 % of control and the T/C [3] was 100 % of control.
In the case of `COc1ccc2c(c1OC)C(=O)OC2`, the T/C [1] is reported as 90 % of control, the T/C [2] is reported as 90 % of control and the T/C [3] is reported as 90 % of control.
In the case of `COc1cc(CC(=O)NCCc2ccsc2)c(CO)cc1OCc1ccccc1`, the T/C (dose: 100.0 mg/kg/injection, schedule: Q01DX001 (ip), vehicle: Klucel (hydroxypropylcellulose) (HPC)) is reported as 99 % of control, the T/C (dose: 200.0 mg/kg/injection, schedule: Q01DX001 (ip), vehicle: Klucel (hydroxypropylcellulose) (HPC)) is reported as 101 % of control and the T/C (dose: 400.0 mg/kg/injection, schedule: Q01DX001 (ip), vehicle: Klucel (hydroxypropylcellulose) (HPC)) is reported as 101 % of control.
For `CCN(CC)Cc1cc(Nc2c3ccc([N+](=O)[O-])cc3nc3ccc(OC)cc23)ccc1O`, the T/C (dose: 50.0 mg/kg/injection, schedule: Q01DX005 (ip), vehicle: saline) was 99 % of control, the T/C (dose: 100.0 mg/kg/injection, schedule: Q01DX005 (ip), vehicle: saline) was 103 % of control and the T/C (dose: 200.0 mg/kg/injection, schedule: Q01DX005 (ip), vehicle: saline) was 101 % of control.
In the case of `COc1cc2c3c(c1OC)-c1[nH]c4ccccc4c1C1CCCN(CC2)C31` (stereo not drawn), the T/C [15] is reported as 95 % of control, the T/C [16] is reported as 96 % of control and the T/C [17] is reported as 98 % of control.
For `Cc1cc2nc3ccc(N)cc3oc-2cc1=[N+](C)C`, the T/C (dose: 6.25 mg/kg/injection, schedule: Q01DX009 (ip), vehicle: saline) was 108 % of control and the T/C (dose: 50.0 mg/kg/injection, schedule: Q01DX009 (ip), vehicle: saline) was 100 % of control.
`C#CC1CC2C3CCC4=CC(=O)CCC4(C)C3CCC2(C)C1N(C)C` (stereo not drawn) was tested, and the T/C (dose: 6.25 mg/kg/injection, schedule: Q01DX005 (ip), vehicle: Klucel (hydroxypropylcellulose) (HPC)) was 99 % of control, the T/C (dose: 12.5 mg/kg/injection, schedule: Q01DX005 (ip), vehicle: Klucel (hydroxypropylcellulose) (HPC)) was 102 % of control and the T/C (dose: 25.0 mg/kg/injection, schedule: Q01DX005 (ip), vehicle: Klucel (hydroxypropylcellulose) (HPC)) was 96 % of control.
For `CC1(C)COC(=O)/C1=C/C#N`, the T/C [1] was 106 % of control, the T/C [2] was 98 % of control and the T/C [3] was 90 % of control.
For `CCN(CC)CCOc1ccc(/C(=C(\Cl)c2ccccc2)c2ccccc2)cc1`, the T/C (dose: 3.13 mg/kg/injection, schedule: Q01DX009 (ip), vehicle: saline with Tween-80) was 96 % of control, the T/C (dose: 6.25 mg/kg/injection, schedule: Q01DX009 (ip), vehicle: saline with Tween-80) was 119 % of control and the T/C (dose: 12.5 mg/kg/injection, schedule: Q01DX009 (ip), vehicle: saline with Tween-80) was 117 % of control. For the same compound, the T/C (dose: 25.0 mg/kg/injection, schedule: Q01DX009 (ip), vehicle: saline with Tween-80) was 122 % of control, the T/C [10] was 93 % of control and the T/C [7] was 104 % of control. The T/C [11] was 96 % of control and the T/C [12] was 93 % of control.
In the case of `CC(CCc1ccc2c(c1)c(=N)c1ccc(N)cc1n2O)CC(C)(C)C` (stereo not drawn), the T/C (dose: 1.56 mg/kg/injection, schedule: Q04DX002 (ip), vehicle: distilled water + Tween-80) is reported as 102 % of control and 96 % of control, the T/C (dose: 3.12 mg/kg/injection, schedule: Q04DX002 (ip), vehicle: distilled water + Tween-80) is reported as 106 % of control and 94 % of control and the T/C (dose: 6.25 mg/kg/injection, schedule: Q04DX002 (ip), vehicle: distilled water + Tween-80) is reported as 100 % of control and 120 % of control. The T/C (dose: 12.5 mg/kg/injection, schedule: Q04DX002 (ip), vehicle: distilled water + Tween-80) was 102 % of control and 98 % of control (2×).
`CCOC(=O)N1CCN(C(=S)N/N=C(\C)c2ncccn2)CC1` was tested, and the T/C (dose: 6.25 mg/kg/injection, schedule: Q01DX005 (ip), vehicle: saline with Tween-80) was 123 % of control and the T/C (dose: 12.5 mg/kg/injection, schedule: Q01DX005 (ip), vehicle: saline with Tween-80) was 97 % of control.
For `O=C(O)C(=O)O.OO.OO.[O]=[V]`, the T/C (dose: 0.94 mg/kg/injection, schedule: Q01DX005 (ip), vehicle: saline) was 92 % of control and the T/C (dose: 3.75 mg/kg/injection, schedule: Q01DX005 (ip), vehicle: saline) was 110 % of control.
`CNC(=O)OCc1c(COC(=O)NC)c(C)n(-c2ccc(F)cc2)c1C` was tested, and the T/C (dose: 25.0 mg/kg/injection, schedule: Q01DX009 (ip), vehicle: saline) was 155 % of control.
With `Nc1nc(CON2C(=O)c3ccccc3C2=O)cs1` the T/C [1] was 97 % of control, the T/C [2] was 99 % of control and the T/C [3] was 103 % of control.
For `O=C(O)C[CH2][Sn]([Cl])([Cl])[CH2]CC(=O)O`, the T/C [1] was 98 % of control, the T/C [2] was 98 % of control and the T/C [3] was 91 % of control.
In the case of `Nc1nc(N)nc(Cl)n1`, the T/C (dose: 12.5 mg/kg/injection, schedule: Q01DX009 (ip), vehicle: Klucel (hydroxypropylcellulose) (HPC)) is reported as 100 % of control and 91 % of control, the T/C (dose: 25.0 mg/kg/injection, schedule: Q01DX009 (ip), vehicle: Klucel (hydroxypropylcellulose) (HPC)) is reported as 101 % of control and 104 % of control and the T/C [13] is reported as 123 % of control and 91 % of control. The T/C [14] was 104 % of control and 96 % of control.
In the case of `CC(=O)Nc1cc2ccccc2c(Br)n1`, the T/C [18] is reported as 90 % of control, the T/C [19] is reported as 97 % of control and the T/C [20] is reported as 97 % of control.
For `CC(C)C1=CCC2C(=C1)CCC1C(C)(C(N)=O)CCCC21C` (stereo not drawn), the T/C [18] was 100 % of control, the T/C [19] was 100 % of control and the T/C [20] was 100 % of control.
